From patent publication US11510931B2, “Compositions and methods for treating ophthalmic conditions” (MEDICON PHARMACEUTICALS, INC., priority 2016, dated 2022)

Experiments:
Format in all cases: in vivo, rabbit
Settings in all cases: Con A DED rabbits, 6 days, eye drops 3×/day; PS nanoparticles, cyclosporine 0.05%, lifitegrast 5%; mean ± SEM
[1] = system: IL-1β; assay: IL-1β levels in the ILG of rabbits with DED (ELISA)
Experimental: (§1) Using this model, we compared the effect of PS to that of cyclosporine and lifitegrast. Rabbits were treated for 6 days with PS as above or cyclosporine 0.05% or lifitegrast 5% eye drops 3×/day. In addition to determining TUBT, osmolarity and STT, we measured the levels of IL-8 and IL-1β in the ILGs of the rabbits harvested at euthanasia. Both of these cytokines are significant mediators of inflammation in DED. As shown in the table below, PS had statistically significant effects on TBUT, tear osmolarity, IL-8 and IL-1β levels. […] Of note, lifitegrast suppressed STT below the levels of the vehicle group and this suppression was statistically significant, but in the opposite direction for a useful therapeutic effect.
(§2) Moreover, for all three cytokines PS suppressed their unstimulated levels as well (62%, 84% and 4.7% reduction, respectively). In addition, PS suppressed the levels of IL-8 by 64% and IL-1β (not expressed by the cultured cells) by 61% in the ILG of rabbits treated with PS for 1 week compared to controls treated with vehicle (FIG. 8B). TGF-β was not detectable by the method in ILG homogenates. All these changes were statistically significant (p<0.001-0.04, except for the unstimulated TGF-β).

[2] = system: concanavalin A-induced dry eye in rabbits; assay: Concanavalin A (Con A)-induced dry eye disease (DED) model in rabbits: TBUT, Schirmer test, tear osmolarity, tear lactoferrin
Experimental: To assess the efficacy of PS on DED an improved concanavalin A model was used. In the concanavalin A model, dry eye is induced by injecting the lacrimal glands of a mammal with concanavalin A, a selective T cell mitogen that induces a lymphocytic infiltrate in these glands. The concanavalin A model is generally described in (Barabino S. Animal models of dry eye. Arch Soc Esp Oftalmol. 2005; 80(12):693-4). Concanavalin A was injected to the lacrimal glands under ultrasound guidance, thus eliminating injections to the vicinity of the gland (as opposed to the gland itself). The head and the tail of the major lacrimal gland of the rabbit were injected separately. The dose of concanavalin A was optimized for DED signs.
In the testing described below, four markers of DED are monitored: the tear break up time (TBUT), the Schirmer test, tear osmolarity, and tear lactoferrin levels. All assays were performed at the same clock time (±1 hr) to avoid assay variability on account of circadian variations.
In an efficacy experiment using the concanavalin A model, one group of rabbits was treated with compound 5, also known as phosphosulindac and abbreviated as PS, 1.5% eye drops and one group with vehicle. […] It is thus clear that PS applied topically suppresses DED.
Con A was injected under ultrasound guidance into all the lacrimal glands and the success of the injection was verified by a post-injection ultrasound image (see FIG. 1 and FIG. 2). […] This variation explains why the blind injections recommended in the original method are often unsuccessful. This was confirmed by mixing the Con A solution with methylene blue and tracking its course after injection. In about ⅓ of the cases, Con A ended up outside the gland.
Four parameters of efficacy were evaluated instead of the usual one or two. They include (a) the tear break up time (TBUT), determined using 0.2% fluorescein over the eye and recording the time taken to develop black dots, lines or obvious disruption of the fluorescein film; (b) tear osmolarity, measured using TearLab Osmolarity Test and following the manufacturer's instructions (TearLab Corp., San Diego, Calif.); (3) Schirmer tear test (STT), determined using Schirmer strips (EagleVision, Denville, N.J.) inserted between the cornea and the palpebral conjunctiva at the mid-point of the lower lid and measuring the length of moistened strip at 5 min; and (4) tear lactoferrin levels measured by ELISA kit (MyBiosource, San Diego, Calif.) following the instructions of the manufacturer. All four have been used in clinical practice and correlate with the clinical activity of the disease. The STT is the least reliable and, as result, it is clinically used less than half as frequently as TBUT.
The injections of Con A to the lacrimal glands were repeated weekly as needed. When longer than a 1-week periods of study are needed, repeat injections prolong dry eye for at least 3 weeks, making the originally acute model chronic.
PS Suppresses Con A—Induced Dry Eye in Rabbits. The effect of PS on dry eye was determined in New Zealand White (NZW) rabbits, 2-3 kg (Charles River Labs, Waltham, Mass.). These rabbits were housed singly in rooms with strict temperature (70±5° F.) and humidity (45±5%) control and acclimated for at least 2 weeks prior to induction of dry eye by injection of Con A as above. NZW rabbits with Con A-induced dry eye (three sets of injections) were treated with PS formulated as nanoparticles and administered topically as eye drops 3×/day for 21 days, starting on the day of Con A injection. […] Similar results were obtained on days 5 and 14 (data not shown).
Using this model, we compared the effect of PS to that of cyclosporine and lifitegrast. Rabbits were treated for 6 days with PS as above or cyclosporine 0.05% or lifitegrast 5% eye drops 3×/day. In addition to determining TUBT, osmolarity and STT, we measured the levels of IL-8 and IL-1β in the ILGs of the rabbits harvested at euthanasia. […]

[3] = system: IL-8; assay: IL-8 levels in the ILG of rabbits with DED (ELISA)
Experimental: as §1, §2

Structure (SMILES): CS(=O)(=O)c1cccc(C[C@H](NC(=O)c2c(Cl)cc3c(c2Cl)CCN(C(=O)c2ccc4ccoc4c2)C3)C(=O)O)c1 [Lifitegrast, lifitegrast, reference compound]
- IL-1β in the ILG [1]: 11.5 ± 1.9 pg/mg protein
- Osmolarity [2]: 290 ± 4.2 mOsm/L
- STT [2]: 6.9 ± 0.7 mm
- TBUT [2]: 9.1 ± 3.0 s
- IL-8 in the ILG [3]: 9.0 ± 2.4 pg/mg protein
